# Source: ChEMBL document CHEMBL1130951, “A photoactivated prodrug” (Bioorg Med Chem Lett, 1998)
# How the values were obtained:
# DH5 alpha [1] = assay: Compound was tested for its ability to inhibit growth of Escherichia coli DH5 alpha cells at 100 uM concentration; complete arrest of cell growth observed; assay type: functional, cell-based
# [2] = T1/2 was determined; assay type: ADME
# DH5 alpha [3] = assay: Compound was irradiated and tested for its ability to inhibit growth of Escherichia coli DH5 alpha cells at 100 uM concentration; cell growth almost completely inhibited.; assay type: functional, cell-based
# DH5 alpha [4] = assay: Compound was tested for its ability to inhibit growth of Escherichia coli DH5 alpha cells at 100 uM concentration; slight growth inhibition observed; assay type: functional, cell-based
SMILES,inhibition (DH5 alpha [1]),half-life [2],inhibition (DH5 alpha [3]),inhibition (DH5 alpha [4])
O=c1[nH]c(=O)n([C@H]2C[C@H](O)[C@@H](CO)O2)cc1F,complete arrest of cell growth observed,–,–,–
COc1cc(COC(=O)OC[C@H]2O[C@@H](n3cc(F)c(=O)[nH]c3=O)C[C@@H]2O)c([N+](=O)[O-])cc1OC,–,6 min,cell growth almost completely inhibited,cell growth almost completely inhibited
